Article PMC9987361, “Interaction of hemorphins with ACE homologs” (Scientific Reports, 2023)
Read-outs that look alike come from different tables or passages of the source. No end group written: not given here.

How the values were obtained:
ACE1 = target: T1, ACE1 (Homo sapiens, UniProt P12821); assay: In vitro ACE1 inhibition assay (colorimetric ACE1 Kit-WST, absorbance 450 nm); format: biochemical
T1 construct: purchased Dojindo Laboratories
Description: ACE1 inhibition was measured using the absorbance-based colorimetric ACE1 Kit-WST (Dojindo Laboratories, Mashiki-machi, Japan) according to the kit instructions. […] The 18 peptides (Table 2) were initially screened in a single run at concentrations of 0, 10, 50, 100, 200, and 500 µM. […] In a 96-well microplate, 20 µL of each hemorphin concentration was pipetted into each well. In addition, 20 µL and 40 µL of deionized water were pipetted into blank 1 and blank 2 wells, respectively, and 20 µL of substrate buffer and 20 µL of enzyme working solution were pipetted into each sample well and blank 1 well.
The microplate was incubated at 37 °C for 1 h. After incubation, 200 µL of indicator working solution was pipetted to each well and then incubated for 5 min at room temperature.
The absorbance was then measured at 450 nm using a Glomax Discover Microplate Reader (Promega, Madison, WI, USA). ACE1 inhibition was measured using the equation given below: Inhibitionrate%=Blank1-Sample/Blank1-Blank2×100 where Blank1 (without a sample but with enzyme working solution) and Blank2 (without a sample and no enzyme working solution) are 20 µL and 40 µL deionized water, respectively.
The half-maximal inhibitory concentration (IC50) was determined using GraphPad Prism version 9 (GraphPad, San Diego, CA) from a nonlinear regression inhibition plot against the peptide concentration.

ACE2 = test system: ACE2; parameters: method as in printed at the sentence; details: clinically used ACE1 inhibitors; background statement, ref not given; cited from earlier work
[1] = Dissolution of purchased peptides during sample preparation; format: physicochemical; details: sample preparation for ACE1 screening
Description: All the purchased peptides were screened in an initial run at 0, 10, 50, 100, 200, and 500 µM.

[2] = IC50 (μM) ± SD against ACE1, mean ± SD of three independent experiments (triplicate runs)
[3] = IC50 values of initial single-run peptide screening, single run at 0, 10, 50, 100, 200 and 500 µM, unit not given for IC50

T1 sequence (P12821 30-1306): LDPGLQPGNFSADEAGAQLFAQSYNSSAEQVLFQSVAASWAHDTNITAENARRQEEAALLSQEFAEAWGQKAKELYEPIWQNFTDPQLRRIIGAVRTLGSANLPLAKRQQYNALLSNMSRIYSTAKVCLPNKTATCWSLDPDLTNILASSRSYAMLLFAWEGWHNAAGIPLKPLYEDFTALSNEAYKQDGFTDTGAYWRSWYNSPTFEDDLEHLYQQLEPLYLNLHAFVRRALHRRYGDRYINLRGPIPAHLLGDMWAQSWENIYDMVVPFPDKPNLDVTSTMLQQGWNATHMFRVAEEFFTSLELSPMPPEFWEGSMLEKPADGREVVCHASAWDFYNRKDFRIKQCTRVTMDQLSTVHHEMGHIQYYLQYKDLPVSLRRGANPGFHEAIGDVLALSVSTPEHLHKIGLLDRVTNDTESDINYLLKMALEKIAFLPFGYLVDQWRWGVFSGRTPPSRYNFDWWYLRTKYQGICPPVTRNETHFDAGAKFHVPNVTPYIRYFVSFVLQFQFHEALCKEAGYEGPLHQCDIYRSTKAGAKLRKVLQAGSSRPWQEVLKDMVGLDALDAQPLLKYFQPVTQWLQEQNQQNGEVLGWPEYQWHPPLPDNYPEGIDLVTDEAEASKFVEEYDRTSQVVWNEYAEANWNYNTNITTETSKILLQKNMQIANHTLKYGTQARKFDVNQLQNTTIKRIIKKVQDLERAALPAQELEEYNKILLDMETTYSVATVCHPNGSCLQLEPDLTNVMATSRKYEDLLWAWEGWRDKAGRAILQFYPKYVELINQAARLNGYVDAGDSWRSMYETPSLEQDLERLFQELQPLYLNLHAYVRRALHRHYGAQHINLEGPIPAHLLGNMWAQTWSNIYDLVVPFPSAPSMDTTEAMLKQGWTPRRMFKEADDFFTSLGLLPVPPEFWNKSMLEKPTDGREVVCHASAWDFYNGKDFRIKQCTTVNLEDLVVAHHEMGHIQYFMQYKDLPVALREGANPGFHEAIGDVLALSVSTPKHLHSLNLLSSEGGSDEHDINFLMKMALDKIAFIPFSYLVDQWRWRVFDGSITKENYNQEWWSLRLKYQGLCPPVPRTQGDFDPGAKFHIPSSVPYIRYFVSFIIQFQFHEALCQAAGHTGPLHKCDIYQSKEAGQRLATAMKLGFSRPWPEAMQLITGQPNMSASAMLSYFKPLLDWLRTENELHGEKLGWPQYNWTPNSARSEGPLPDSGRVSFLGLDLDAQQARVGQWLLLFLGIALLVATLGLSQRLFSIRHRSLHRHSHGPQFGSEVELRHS

Molecule	IC50 (ACE1; [2]) [µM]	IC50 (ACE1; [3]) [µM]	further results
CC(C)C[C@H](N)C(=O)N[C@H](C(=O)N[C@H](C(=O)N[C@@H](Cc1ccc(O)cc1)C(=O)N1CCC[C@H]1C(=O)N[C@@H](Cc1c[nH]c2ccccc12)C(=O)N[C@H](C(=O)N[C@@H](CCCNC(=N)N)C(=O)N[C@@H](CCCNC(=N)N)C(=O)N[C@@H](Cc1ccccc1)C(=O)O)[C@@H](C)O)C(C)C)C(C)C [Camel LVVHem7]	11.1 ± 2.18	25.8	–
CC(C)C[C@H](N)C(=O)N[C@H](C(=O)N[C@H](C(=O)N[C@@H](Cc1ccc(O)cc1)C(=O)N1CCC[C@H]1C(=O)N[C@@H](Cc1c[nH]c2ccccc12)C(=O)N[C@H](C(=O)N[C@@H](CCC(N)=O)C(=O)N[C@@H](CCCNC(=N)N)C(=O)N[C@@H](Cc1ccccc1)C(=O)O)[C@@H](C)O)C(C)C)C(C)C [LVVHem7]	13.1 ± 2.87	29.3	–
C[C@H](CS)C(=O)N1CCC[C@H]1C(=O)O [captopril]	–	–	Activity against ACE2 (ACE2): inactivity
NCCCC[C@H](N[C@@H](CCc1ccccc1)C(=O)O)C(=O)N1CCC[C@H]1C(=O)O [lisinopril]	–	–	Activity against ACE2 (ACE2): inactivity
LVVYPWTQ [LVVHem5]	20.1 ± 1.33	36.7	–
LVVYPWTQR [LVVHem6]	6.45	14.9	–
LVVYPWTR [Camel LVVHem5]	6.88 ± 1.89	21.2	–
LVVYPWTRR [Camel LVVHem6]	5.12 ± 0.7	25.9	–
Tyr-Pro-Trp-Thr [Hem4]	–	–	IC50 values of initial single-run peptide screening (ACE1; single run at 0, 10, 50, 100, 200 and 500 µM, unit not given for IC50): No IC50
Tyr-Pro-Trp-Thr-Gln (YPWTQ; printed: Tyr-Pro-Trp-Thr-Gln) [Hem5]	–	–	Dissolution during sample preparation [1]: did not dissolve
VVYPWTQR [VVHem6]	12.7	30.3	–
VVYPWTRR [Camel VVHem6]	–	44.1	–
VVYPWTRRF [Camel VVHem7]	–	51.4	–
YPWTQR [Hem6, Tyr-Pro-Trp-Thr-Gln-Arg]	–	80.2	–
YPWTQRF [Hem7, Tyr-Pro-Trp-Thr-Gln-Arg-Phe]	–	95.1	–
YPWTR [Camel Hem5, Tyr-Pro-Trp-Thr-Arg]	–	–	IC50 (ACE1): 78.8 µM
YPWTRR [Camel Hem6]	–	–	Dissolution during sample preparation [1]: did not dissolve
YPWTRRF [Camel Hem7, Tyr-Pro-Trp-Thr-Arg-Arg-Phe]	23.6 ± 3.7	44.1	–
